Assay results from the supplement of paper PMC3621838.
± gives the standard deviation of the averaged measurements.

Test system: HEK293 NF-kB-luciferase reporter cells
Assay: NF-kB luciferase reporter activity, robust Z-score vs plate median (robust Z-score (log luminescence)); higher = stronger NF-kB reporter activation
Settings: TNF 0 ng/mL; TNF treatment time 8.5 h; transfection time 72 h
Method: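 Primary screen of an Ambion Pre-miR miRNA mimic library (miRBase v8.0, 1.6 pmol/well, 384-well, duplicate) reverse-transfected into HEK293 cells stably expressing a 5x NF-kB firefly luciferase reporter. After 72 h the cells were treated with vehicle or TNF (40 ng/mL) for 8.5 h and luminescence was read (BriteLite). Raw luminescence was log-transformed and converted to a robust Z-score per plate: (x - plate median)/plate MAD. Sequence given is the mature miRNA strand of the double-stranded mimic.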

Sequence | NF-kB luciferase reporter activity
UGAUUGGUACGUCUGUGGGUAGA | -0.152 ± 0.091
UGAUUGUAGCCUUUUGGAGUAGA | -1.51 ± 0.46
UGCUGACUCCUAGUCCAGGGC | -1.7 ± 0.2
UGCUUCCUUUCAGAGGGU | 1.34 ± 0.039
UGGAGAGAAAGGCAGUUC | 0.465 ± 0.4
UGGUAGACUAUGGAACGUA | 0.274 ± 0.8
UGGUUGACCAUAGAACAUGCGC | -0.133 ± 0.5
UGGUUUACCGUCCCACAUACAU | -0.822 ± 0.38
UGUCUGCCCGCAUGCCUGCCUCU | 1.07 ± 0.88
UGUCUUGCAGGCCGUCAUGCA | 1.79 ± 0.31
UGUGACAGAUUGAUAACUGAAA | -0.287 ± 0.28
UGUUUGCAGAGGAAACUGAGAC | 1.44 ± 0.076
UUAAGACUUGCAGUGAUGUUUAA | -0.92 ± 0.38
UUAUAAUACAACCUGAUAAGUG | -0.295 ± 1.1
UUAUCAGAAUCUCCAGGGGUAC | -0.469 ± 0.36
UUCAAGUAAUUCAGGAUAGGUU | 0.218 ± 0.18
UUCACAGGGAGGUGUCAUUUAU | 0.436 ± 0.13
UUCACAGUGGCUAAGUUCCGC | 0.203 ± 0.55
UUCCCUUUGUCAUCCUUCGCCU | 0.84 ± 0.23
UUCUCCAAAAGAAAGCACUUUCUG | -0.171 ± 0.24
UUCUCCAAAAGGGAGCACUUUC | 1.07 ± 0.25
UUGUACAUGGUAGGCUUUCAUU | 0.596 ± 0.28
UUUAACAUGGGGGUACCUGCUG | -0.207 ± 0.29
UUUCAAGCCAGGGGGCGUUUUUC | 0.765 ± 0.45
UUUGUUCGUUCGGCUCGCGUGA | -0.464 ± 1
UUUUGCACCUUUUGGAGUGAA | 1.1 ± 0.92

Same assay, conditions: TNF 40 ng/mL; TNF treatment time 8.5 h; transfection time 72 h

Sequence | NF-kB luciferase reporter activity
UGAUUGGUACGUCUGUGGGUAGA | -0.9703 ± 0.0044
UGAUUGUAGCCUUUUGGAGUAGA | -0.927 ± 0.034
UGCUGACUCCUAGUCCAGGGC | -3.27 ± 0.18
UGCUUCCUUUCAGAGGGU | 0.941 ± 0.075
UGGAGAGAAAGGCAGUUC | 0.268 ± 0.031
UGGUAGACUAUGGAACGUA | 0.0556 ± 0.21
UGGUUGACCAUAGAACAUGCGC | -2.27 ± 0.2
UGGUUUACCGUCCCACAUACAU | 0.367 ± 0.064
UGUCUGCCCGCAUGCCUGCCUCU | 0.822 ± 0.046
UGUCUUGCAGGCCGUCAUGCA | -0.465 ± 0.12
UGUGACAGAUUGAUAACUGAAA | -2.016 ± 0.016
UGUUUGCAGAGGAAACUGAGAC | -1.26 ± 0.051
UUAAGACUUGCAGUGAUGUUUAA | 0.155 ± 0.07
UUAUAAUACAACCUGAUAAGUG | -0.534 ± 0.029
UUAUCAGAAUCUCCAGGGGUAC | -0.796 ± 0.17
UUCAAGUAAUUCAGGAUAGGUU | 0.0275 ± 0.0019
UUCACAGGGAGGUGUCAUUUAU | 0.0761 ± 0.082
UUCACAGUGGCUAAGUUCCGC | 0.955 ± 0.096
UUCCCUUUGUCAUCCUUCGCCU | 0.327 ± 0.09
UUCUCCAAAAGAAAGCACUUUCUG | -1.816 ± 0.017
UUCUCCAAAAGGGAGCACUUUC | -1.42 ± 0.11
UUGUACAUGGUAGGCUUUCAUU | 0.433 ± 0.025
UUUAACAUGGGGGUACCUGCUG | 0.504 ± 0.055
UUUCAAGCCAGGGGGCGUUUUUC | 0.885 ± 0.064
UUUGUUCGUUCGGCUCGCGUGA | -3.19 ± 0.074
UUUUGCACCUUUUGGAGUGAA | -0.163 ± 0.01
